Laboratory results as given in paper doi:10.1101/2024.08.19.608619, “Discovery of potent SARS-CoV-2 nsp3 macrodomain inhibitors uncovers lack of translation to cellular antiviral response” (bioRxiv, 2024).
Read-outs that look alike come from different tables or passages of the source.

Tests used:
[1] = target: T1, SARS-CoV-2 nsp3-mac1 (Severe acute respiratory syndrome coronavirus 2, UniProt P0DTD1); assay: biochemical; assay type: biochemical; conditions: SARS-CoV-2 nsp3 macrodomain TR-FRET single point
[2] = target: T1, SARS-CoV-2 nsp3-mac1; assay: biochemical; set-up: SARS-CoV-2 nsp3 macrodomain TR-FRET single point, per cent inhibition, n=2
[3] = read-out: perc_inhibition_mean, batch_name=ASAP-0000196-002
[4] = read-out: perc_inhibition_mean, batch_name=ASAP-0000199-002
[5] = read-out: perc_inhibition_mean, batch_name=ASAP-0000200-002
[6] = read-out: perc_inhibition_mean, batch_name=ASAP-0000203-002
[7] = read-out: perc_inhibition_mean, batch_name=ASAP-0000242-001
[8] = read-out: perc_inhibition_mean, batch_name=ASAP-0000243-001
[9] = read-out: perc_inhibition_mean, batch_name=ASAP-0000244-001
[10] = read-out: perc_inhibition_mean, batch_name=ASAP-0000245-001
[11] = read-out: perc_inhibition_mean, batch_name=ASAP-0000246-001
[12] = read-out: perc_inhibition_mean, batch_name=ASAP-0000247-001
[13] = read-out: perc_inhibition_mean, batch_name=ASAP-0000248-001
[14] = read-out: perc_inhibition_mean, batch_name=ASAP-0000249-001
[15] = read-out: perc_inhibition_mean, batch_name=ASAP-0000250-001
[16] = read-out: perc_inhibition_mean, batch_name=ASAP-0000251-001
[17] = read-out: perc_inhibition_mean, batch_name=ASAP-0000252-001
[18] = read-out: perc_inhibition_mean, batch_name=ASAP-0000253-001
[19] = read-out: perc_inhibition_mean, batch_name=ASAP-0000254-001
[20] = read-out: perc_inhibition_mean, batch_name=ASAP-0000255-001

O=C(Nc1cnn(C2CCNCC2)c1)c1ncnc2[nH]ccc12 [ASAP-0000138]
perc_inhibition_mean ([1]; concentration 50.0 uM): -1.896%
inhibition at 50 µM ([2]; read-out: perc_inhibition_mean, batch_name=ASAP-0000138-001): -1.9%

CC(C)n1cc(S(=O)(=O)Nc2cnc3[nH]ncc3c2)cn1 [ASAP-0000139]
perc_inhibition_mean ([1]; concentration 50.0 uM): 1.555%
inhibition at 50 µM ([2]; read-out: perc_inhibition_mean, batch_name=ASAP-0000139-001): 1.55%

Cc1cccc(Cl)c1S(=O)(=O)Nc1cnc2[nH]ncc2c1 [ASAP-0000140]
perc_inhibition_mean ([1]; concentration 50.0 uM): -0.254%
inhibition at 50 µM ([2]; read-out: perc_inhibition_mean, batch_name=ASAP-0000140-001): -0.254%

Cn1c(C(=O)NCCn2cccc2)cc2c(=O)n3ccccc3nc21 [ASAP-0000188]
perc_inhibition_mean ([1]; concentration 50.0 uM): 2.262%
inhibition at 50 µM ([2]; read-out: perc_inhibition_mean, batch_name=ASAP-0000188-001): 2.26%

CCn1cc(CNc2cc3c(O)ncnc3cn2)nn1 [ASAP-0000189]
perc_inhibition_mean ([1]; concentration 50.0 uM): 1.671%
inhibition at 50 µM ([2]; read-out: perc_inhibition_mean, batch_name=ASAP-0000189-001): 1.67%

CSc1ccccc1NC(=O)c1ncnc2[nH]ccc12 [ASAP-0000190]
perc_inhibition_mean ([1]; concentration 50.0 uM): -5.805%
inhibition at 50 µM ([2]; read-out: perc_inhibition_mean, batch_name=ASAP-0000190-001): -5.8%

CSc1cccc(NC(=O)c2ncnc3[nH]ccc23)c1 [ASAP-0000192]
perc_inhibition_mean ([1]; concentration 50.0 uM): -4.669%
inhibition at 50 µM ([2]; read-out: perc_inhibition_mean, batch_name=ASAP-0000192-001): -4.67%

OC[C@@]1(Cc2ccc(F)cc2)CCN(c2ncnc3[nH]ccc23)C1 [ASAP-0000194]
perc_inhibition_mean ([1]; concentration 50.0 uM): 5.07%
inhibition at 50 µM ([2]; read-out: perc_inhibition_mean, batch_name=ASAP-0000194-001): 5.07%

Cc1ncc(NCc2cnc3c(c2)NC(=O)CO3)cc1Cl [ASAP-0000195]
perc_inhibition_mean ([1]; concentration 50.0 uM): -0.368%
inhibition at 50 µM ([2]; read-out: perc_inhibition_mean, batch_name=ASAP-0000195-001): -0.368%

c1cc(-c2nnc(Sc3ncnc4[nH]ccc34)[nH]2)ccn1 [ASAP-0000196]
perc_inhibition_mean ([1]; concentration 50.0 uM): 5.47%
perc_inhibition_mean ([1]; concentration 50.0 uM, n=2): 10.682%
perc_inhibition_mean ([1]; concentration 100.0 uM, n=2): 3.318%
inhibition at 50 µM ([2]; read-out: perc_inhibition_mean, batch_name=ASAP-0000196-001): 5.47%
inhibition at 50 µM [2, 3]: 10.7%
inhibition at 100 µM [2, 3]: 3.32%

c1coc(CNc2ncnc3[nH]cnc23)c1 [ASAP-0000198]
perc_inhibition_mean ([1]; concentration 50.0 uM): 2.634%
inhibition at 50 µM ([2]; read-out: perc_inhibition_mean, batch_name=ASAP-0000198-001): 2.63%

c1nc(-c2nc(-c3cc(C4CC4)[nH]n3)no2)c2cc[nH]c2n1 [ASAP-0000199]
perc_inhibition_mean ([1]; concentration 50.0 uM): -2.809%
perc_inhibition_mean ([1]; concentration 50.0 uM, n=2): -4.799%
perc_inhibition_mean ([1]; concentration 100.0 uM, n=2): -2.454%
inhibition at 50 µM ([2]; read-out: perc_inhibition_mean, batch_name=ASAP-0000199-001): -2.81%
inhibition at 50 µM [2, 4]: -4.8%
inhibition at 100 µM [2, 4]: -2.45%

Cc1cc(C(F)(F)F)nn1CCNc1ncnc2[nH]ccc12 [ASAP-0000200]
perc_inhibition_mean ([1]; concentration 50.0 uM): 4.602%
perc_inhibition_mean ([1]; concentration 50.0 uM, n=2): -3.037%
perc_inhibition_mean ([1]; concentration 100.0 uM, n=2): -2.206%
inhibition at 50 µM ([2]; read-out: perc_inhibition_mean, batch_name=ASAP-0000200-001): 4.6%
inhibition at 50 µM [2, 5]: -3.04%
inhibition at 100 µM [2, 5]: -2.21%

CC[C@@H]1C[C@@H](C(=O)Nc2ncnc3[nH]c(C)c(C)c23)CCO1 [ASAP-0000201]
perc_inhibition_mean ([1]; concentration 50.0 uM): 12.08%
inhibition at 50 µM ([2]; read-out: perc_inhibition_mean, batch_name=ASAP-0000201-001): 12.1%

COCc1cc(CNc2cc3c(O)ncnc3cn2)no1 [ASAP-0000202]
perc_inhibition_mean ([1]; concentration 50.0 uM): 3.308%
inhibition at 50 µM ([2]; read-out: perc_inhibition_mean, batch_name=ASAP-0000202-001): 3.31%

Cc1ccc(-c2n[nH]cc2CNc2cnc3[nH]ncc3c2)o1 [ASAP-0000203]
perc_inhibition_mean ([1]; concentration 50.0 uM): 7.232%
perc_inhibition_mean ([1]; concentration 50.0 uM, n=2): -21.592%
perc_inhibition_mean ([1]; concentration 100.0 uM, n=2): -24.84%
inhibition at 50 µM ([2]; read-out: perc_inhibition_mean, batch_name=ASAP-0000203-001): 7.23%
inhibition at 50 µM [2, 6]: -21.6%
inhibition at 100 µM [2, 6]: -24.8%

Cn1cnc2c(Nc3cncc(CN)c3)nc(N)nc21 [ASAP-0000242]
perc_inhibition_mean ([1]; concentration 50.0 uM): -14.217%
perc_inhibition_mean ([1]; concentration 100.0 uM): -28.278%
inhibition at 50 µM [2, 7]: -14.2%
inhibition at 100 µM [2, 7]: -28.3%

CO[C@@]1(C(=O)O)CCN(C(=O)c2ncnc3[nH]ccc23)C1 [ASAP-0000243]
perc_inhibition_mean ([1]; concentration 50.0 uM): -4.181%
perc_inhibition_mean ([1]; concentration 100.0 uM): -3.71%
inhibition at 50 µM [2, 8]: -4.18%
inhibition at 100 µM [2, 8]: -3.71%

C[C@]1(C(=O)O)CCCN1C(=O)c1ncnc2[nH]ccc12 [ASAP-0000244]
perc_inhibition_mean ([1]; concentration 50.0 uM): -5.285%
perc_inhibition_mean ([1]; concentration 100.0 uM): 5.665%
inhibition at 50 µM [2, 9]: -5.29%
inhibition at 100 µM [2, 9]: 5.67%

FC(F)(F)Oc1ccccc1-c1ncnc2[nH]ccc12 [ASAP-0000245]
perc_inhibition_mean ([1]; concentration 50.0 uM): -3.369%
perc_inhibition_mean ([1]; concentration 100.0 uM): 2.117%
inhibition at 50 µM [2, 10]: -3.37%
inhibition at 100 µM [2, 10]: 2.12%

Clc1cnc(OCCNc2ncnc3[nH]ccc23)c(Cl)c1 [ASAP-0000246]
perc_inhibition_mean ([1]; concentration 50.0 uM): -4.296%
perc_inhibition_mean ([1]; concentration 100.0 uM): -7.687%
inhibition at 50 µM [2, 11]: -4.3%
inhibition at 100 µM [2, 11]: -7.69%

CO[C@@H](CNc1ncnc2[nH]ccc12)c1cccc(Cl)c1 [ASAP-0000247]
perc_inhibition_mean ([1]; concentration 50.0 uM): 4.096%
perc_inhibition_mean ([1]; concentration 100.0 uM): 14.175%
inhibition at 50 µM [2, 12]: 4.1%
inhibition at 100 µM [2, 12]: 14.2%

O=C(NCc1ccc(Cl)cn1)c1ncnc2[nH]ccc12 [ASAP-0000248]
perc_inhibition_mean ([1]; concentration 50.0 uM): -4.958%
perc_inhibition_mean ([1]; concentration 100.0 uM): -2.568%
inhibition at 50 µM [2, 13]: -4.96%
inhibition at 100 µM [2, 13]: -2.57%

OC[C@H](Cc1ccccc1)Nc1ncnc2[nH]ccc12 [ASAP-0000249]
perc_inhibition_mean ([1]; concentration 50.0 uM): -1.29%
perc_inhibition_mean ([1]; concentration 100.0 uM): 8.928%
inhibition at 50 µM [2, 14]: -1.29%
inhibition at 100 µM [2, 14]: 8.93%

CN(Cc1nccn1Cc1ccccc1)c1ncnc2[nH]ccc12 [ASAP-0000250]
perc_inhibition_mean ([1]; concentration 50.0 uM): -7.218%
perc_inhibition_mean ([1]; concentration 100.0 uM): -8.82%
inhibition at 50 µM [2, 15]: -7.22%
inhibition at 100 µM [2, 15]: -8.82%

Clc1cnc(N2CCN(c3ncnc4[nH]ccc34)CC2)c(Cl)c1 [ASAP-0000251]
perc_inhibition_mean ([1]; concentration 50.0 uM): -1.996%
perc_inhibition_mean ([1]; concentration 100.0 uM): -6.565%
inhibition at 50 µM [2, 16]: -2%
inhibition at 100 µM [2, 16]: -6.57%

c1nc(NCc2cnc3sccn23)c2[nH]cnc2n1 [ASAP-0000252]
perc_inhibition_mean ([1]; concentration 50.0 uM): -4.782%
perc_inhibition_mean ([1]; concentration 100.0 uM): 5.65%
inhibition at 50 µM [2, 17]: -4.78%
inhibition at 100 µM [2, 17]: 5.65%

Cc1cc(C(=O)Nc2[nH]nc3nc(O)ccc23)c2c(C)nn(C)c2n1 [ASAP-0000253]
perc_inhibition_mean ([1]; concentration 50.0 uM): -6.166%
perc_inhibition_mean ([1]; concentration 100.0 uM): -3.323%
inhibition at 50 µM [2, 18]: -6.17%
inhibition at 100 µM [2, 18]: -3.32%

Cc1ccc(O)c(CNc2ncnc3[nH]cnc23)n1 [ASAP-0000254]
perc_inhibition_mean ([1]; concentration 50.0 uM): 0.262%
perc_inhibition_mean ([1]; concentration 100.0 uM): 6.284%
inhibition at 50 µM [2, 19]: 0.262%
inhibition at 100 µM [2, 19]: 6.28%

O=C(NCc1cccc(F)n1)c1cnc2nc[nH]c(=O)c2c1 [ASAP-0000255]
perc_inhibition_mean ([1]; concentration 100.0 uM): -14.602%
perc_inhibition_mean ([1]; concentration 50.0 uM, n=2): -14.823%
inhibition at 50 µM [2, 20]: -14.8%
inhibition at 100 µM [2, 20]: -14.6%
